# Measurements as given in ChEMBL document CHEMBL1137115, “Preparation of novel aza-1,7-annulated indoles and their conversion to potent indolocarbazole kinase inhibitors” (Bioorg Med Chem Lett, 2004).
# Assays:
# [1] = target: Cyclin-dependent kinase 4/cyclin D1 (Homo sapiens, UniProt P11802); assay: Inhibition of Cyclin D1-cyclin-dependent kinase 4; type: protein-complex assay
# [2] = Inhibition of Protein kinase A
# HCT-116 = assay: Antiproliferative activity was tested in human HCT116 (colon) cell line; type: functional, cell-based
# [3] = target: Cyclin-dependent kinase 2/cyclin E (Homo sapiens, UniProt P24941); assay: Inhibition of Cyclin E-cyclin-dependent kinase 2; type: protein-complex assay
# Cyclin-dependent kinase 4/cyclin D1, sequence (P11802 whole entry): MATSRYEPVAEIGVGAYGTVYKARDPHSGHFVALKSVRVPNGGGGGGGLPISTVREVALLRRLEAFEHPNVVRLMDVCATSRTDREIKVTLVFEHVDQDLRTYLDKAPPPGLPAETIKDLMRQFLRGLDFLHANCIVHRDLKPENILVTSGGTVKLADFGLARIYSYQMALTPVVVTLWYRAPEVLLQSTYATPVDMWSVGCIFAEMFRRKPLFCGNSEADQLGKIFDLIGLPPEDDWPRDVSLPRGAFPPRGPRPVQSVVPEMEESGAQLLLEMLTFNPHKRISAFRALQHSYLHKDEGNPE
# Cyclin-dependent kinase 4/cyclin D1, sequence (P24385 whole entry, further chain): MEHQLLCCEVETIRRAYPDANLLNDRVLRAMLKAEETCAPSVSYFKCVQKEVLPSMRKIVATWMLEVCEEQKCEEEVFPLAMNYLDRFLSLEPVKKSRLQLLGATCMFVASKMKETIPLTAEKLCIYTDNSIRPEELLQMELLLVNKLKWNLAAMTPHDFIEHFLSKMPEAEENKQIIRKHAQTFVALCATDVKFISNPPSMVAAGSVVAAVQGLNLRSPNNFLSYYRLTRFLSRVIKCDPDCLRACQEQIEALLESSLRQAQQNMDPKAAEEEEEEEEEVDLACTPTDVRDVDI
Structure (SMILES),IC50 [1] [nM],IC50 [2] [nM],IC50 (HCT-116) [nM],IC50 [3] [nM]
O=C1NC(=O)c2c1c1c3ccccc3[nH]c1c1c2c2cccc3c2n1CCCCNC3,80,40,90,200
O=C1NC(=O)c2c1c1c3ccc(C(F)(F)F)c(CO)c3[nH]c1c1c2c2cccc3c2n1CCNC3,40,,3500,
Cc1cn(S(=O)(=O)N2CCn3c4c(cccc4c4c5c(c6c7ccccc7[nH]c6c43)C(=O)NC5=O)C2)cn1,120,> 2000,> 10000,
CS(=O)(=O)N1CCn2c3c(cccc3c3c4c(c5c6ccccc6[nH]c5c32)C(=O)NC4=O)C1,50,> 2000,1600,> 200
NCC(=O)N1CCn2c3c(cccc3c3c4c(c5c6ccccc6[nH]c5c32)C(=O)NC4=O)C1,,> 20000,> 10000,
O=C1NC(=O)c2c1c1c3ccc(C(F)(F)F)cc3[nH]c1c1c2c2cccc3c2n1CCNC3,60,> 2000,170,210
CC(C)N1CCn2c3c(cccc3c3c4c(c5c6ccccc6[nH]c5c32)C(=O)NC4=O)C1,70,> 2000,640,780

# Further lines, results first:
IC50 [1] [nM],IC50 [2] [nM],IC50 (HCT-116) [nM],IC50 [3] [nM],Structure (SMILES)
27,160,310,30,O=C1NC(=O)c2c1c1c3ccccc3[nH]c1c1c2c2cccc3c2n1CCNC3
30,200,260,> 200,O=C1NC(=O)c2c1c1c3cc(F)ccc3[nH]c1c1c2c2cccc3c2n1CCNC3
,> 2000,400,> 200,O=C1NC(=O)c2c1c1c3cc(F)c(F)cc3[nH]c1c1c2c2cccc3c2n1CCNC3
30,430,200,10,O=C1NC(=O)c2c1c1c3ccc(F)cc3[nH]c1c1c2c2cccc3c2n1CCNC3
